In PubChem BioAssay AID977614 (Broad Institute, 2014) one finds AC50 data, which are given here for 70 molecules.

The source made the active and inactive calls.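 Rule for the calls: active = parasite count per well reduced by over 3 SD from the mean, with host cell number above 80% of untreated; inactive = the rest.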 Bounds are passed on as bounds.

This test concerns L. donovani amastigotes in THP-1 macrophages, DAPI imaging, 72 h. Briefly: L. donovani intracellular amastigote growth inhibitors, imaging, THP-1 host macrophages, single concentration (AID 977614).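 Note: signal is the parasite per host cell ratio from DAPI stained kinetoplasts and nuclei.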
A word on the AC50: it is the concentration giving half of the maximal activity seen. For `CCCC(=O)N1C[C@H]2[C@@H](c3ccccc31)[C@@H](CO)N2C(=O)Nc1ccc(F)cc1`, the AC50 was > 10 µM (inactive).

With `C[C@H]1CN([C@@H](C)CO)C(=O)CCCn2cc(nn2)CO[C@@H]1CN(C)S(=O)(=O)c1cccc(C#N)c1`, the AC50 was > 10 µM (inactive).

On to `Cc1noc(C)c1S(=O)(=O)N(C)C[C@@H]1OCc2cnnn2CCCC(=O)N([C@@H](C)CO)C[C@@H]1C`, for which the AC50 is > 10 µM (inactive).

On to `O=S(=O)(NC[C@@H]1[C@H](c2ccccc2)[C@H](CO)N1CC1CC1)c1ccccc1`, for which the AC50 is > 10 µM (inactive).

Regarding `C/C=C/c1ccc([C@@H]2[C@@H](CO)N(C(C)=O)[C@@H]2CNC(=O)c2ccccc2)cc1`, the AC50 was > 10 µM (inactive).

For the molecule `COc1ccccc1NC(=O)N1C[C@@H]2[C@H](c3ccccc31)[C@H](CO)N2Cc1ccc2c(c1)OCO2`, the AC50 was > 10 µM (inactive).

As to `C[C@H](CO)N1C[C@H](C)[C@@H](CN(C)Cc2ccccc2)OCc2cn(nn2)CCCC1=O`, the AC50 was > 10 µM (inactive).

For `C[C@@H]1CN([C@H](C)CO)C(=O)CCCn2nncc2CO[C@@H]1CN(C)S(=O)(=O)c1ccccc1C#N`, the AC50 is > 10 µM (inactive).

With `CC(C)NC(=O)N1[C@@H]2CNc3ccccc3[C@@H]2[C@@H]1CO`, the AC50 was > 10 µM (inactive).

`O=C(Cc1cccnc1)N1[C@H](CO)[C@H](c2ccccc2)[C@@H]1CNCC1CCC1`: the AC50 was > 10 µM (inactive).

Consider `O=C(Cc1cccnc1)N1[C@H](CNCC2CCC2)[C@H](c2ccccc2)[C@@H]1CO`, for which the AC50 was > 10 µM (inactive).

In the case of `O=C(C1CCC1)N1C[C@@H]2[C@H](c3ccccc31)[C@H](CO)N2C(=O)Nc1cccc(F)c1`, the AC50 was > 10 µM (inactive).

For the molecule `C/C=C/c1ccc([C@H]2[C@@H](CO)N[C@@H]2CN(C(=O)c2ccccc2F)C(C)C)cc1`, the AC50 was > 10 µM (inactive).

Consider `COCC(=O)N(C[C@H]1[C@H](c2ccccc2)[C@H](CO)N1C(=O)NC(C)C)C(C)C`, for which the AC50 is > 10 µM (inactive).

With `Cc1cccc(S(=O)(=O)N2C[C@H]3[C@@H](c4ccccc42)[C@H](CO)N3Cc2ccc3c(c2)OCO3)c1`, the AC50 is > 10 µM (inactive).

As to `CC(=O)N1[C@H](CO)[C@@H](c2ccccc2)[C@@H]1CN(CC(C)C)C(=O)c1ccccn1`, the AC50 is > 10 µM (inactive).

As to `CCC(=O)NC[C@@H]1[C@@H](c2ccc(-c3cccc(F)c3)cc2)[C@@H](CO)N1CC1CC1`, the AC50 was > 10 µM (inactive).

With `CN1C[C@H]2[C@@H](c3ccccc31)[C@@H](CO)N2S(=O)(=O)c1ccccc1`, the AC50 was > 10 µM (inactive).

In the case of `C[C@@H]1CN([C@@H](C)CO)C(=O)CCCn2nncc2CO[C@H]1CN(C)C(=O)Nc1ccccc1C(F)(F)F`, the AC50 was > 10 µM (inactive).

With `C[C@@H]1CN([C@@H](C)CO)C(=O)CCCn2nncc2CO[C@@H]1CN(C)Cc1cccc2c1OCCCO2`, the AC50 was > 10 µM (inactive).

For the molecule `COc1ccc(C(=O)N2C[C@H]3[C@@H](c4ccccc42)[C@@H](CO)N3Cc2ccccc2Cl)cc1`, the AC50 is > 10 µM (inactive).

For the molecule `O=C(NC[C@H]1N[C@H](CO)[C@@H]1c1ccc(-c2ccccc2)cc1)c1cccc(F)c1`, the AC50 was > 10 µM (inactive).

Regarding `C[C@H](CO)N1C[C@H](C)[C@H](CN(C)Cc2cccc3c2OCCCO3)OCc2cnnn2CCCC1=O`, the AC50 was > 10 µM (inactive).

Regarding `O=C(c1ccccn1)N1C[C@H]2[C@@H](c3ccccc31)[C@@H](CO)N2C(=O)C1CCCCC1`, the AC50 is > 10 µM (inactive).

Consider `C[C@@H]1CN([C@@H](C)CO)C(=O)CCCn2nncc2CO[C@@H]1CN(C)C(=O)Oc1cccc2ccccc12`, for which the AC50 is > 10 µM (inactive).

With `C[C@@H]1CN([C@H](C)CO)C(=O)CCCn2cc(nn2)CO[C@@H]1CN(C)C(=O)Nc1cccc2ccccc12`, the AC50 was > 10 µM (inactive).

Consider `CC(C)NC(=O)N1[C@@H](CO)[C@@H]2c3ccccc3NC[C@@H]21`, for which the AC50 was > 10 µM (inactive).

With `CC(=O)NC[C@@H]1[C@@H](c2ccc(C3=CCCC3)cc2)[C@H](CO)N1Cc1cccnc1`, the AC50 is > 10 µM (inactive).

Take `COCC(=O)N(C[C@H]1N[C@H](CO)[C@@H]1c1ccc(C2=CCCC2)cc1)C1CCCC1`: the AC50 was > 10 µM (inactive).

Turning to `O=C(NC[C@@H]1[C@H](c2ccccc2)[C@@H](CO)N1C(=O)C1CCC1)NC1CCCC1`, the AC50 was > 10 µM (inactive).

Turning to `CC(=O)N1[C@H](CO)[C@@H](c2ccccc2)[C@H]1CN(CC1CCC1)C(=O)CN(C)C`, the AC50 was > 10 µM (inactive).

In the case of `C[C@H](CO)N1C[C@H](C)[C@@H](CN(C)C(=O)Nc2ccc3c(c2)OCCO3)OCc2cnnn2CCCC1=O`, the AC50 is > 10 µM (inactive).

Turning to `CC(=O)N1[C@@H](CO)[C@@H](c2ccccc2)[C@@H]1CNC(=O)CN1CCOCC1`, the AC50 is > 10 µM (inactive).

With `O=C(NC[C@H]1[C@H](c2ccccc2)[C@H](CO)N1Cc1cccnc1)c1ccccn1`, the AC50 is > 10 µM (inactive).

Consider `C[C@H](CO)N1C[C@H](C)[C@H](CN(C)C(=O)Nc2ccc(-c3cccs3)cc2)OCc2cnnn2CCCC1=O`, for which the AC50 was > 10 µM (inactive).

As to `COCC(=O)N1[C@@H]2CNc3ccccc3[C@@H]2[C@@H]1CO`, the AC50 is > 10 µM (inactive).

Turning to `C[C@H]1CN([C@@H](C)CO)C(=O)CCCn2nncc2CO[C@@H]1CN(C)C(=O)Nc1cccc(Oc2ccccn2)c1`, the AC50 was > 10 µM (inactive).

As for `O=S(=O)(c1ccc(F)cc1)N1C[C@@H]2[C@H](c3ccccc31)[C@H](CO)N2Cc1ccccc1Cl`, the AC50 is > 10 µM (inactive).

Consider `CC(C)NC(=O)N1[C@H](CNC(=O)CN(C)C)[C@H](c2ccccc2)[C@@H]1CO`, for which the AC50 was > 10 µM (inactive).

In the case of `O=C(Nc1cccc(Cl)c1)N1C[C@H]2[C@@H](c3ccccc31)[C@@H](CO)N2Cc1cccnc1`, the AC50 is > 10 µM (inactive).

`O=C(Nc1ccc(F)cc1)N1C[C@@H]2[C@H](c3ccccc31)[C@@H](CO)N2Cc1ccccc1Cl`: the AC50 is > 10 µM (inactive).

As to `Cc1noc(C)c1NC(=O)N(C)C[C@H]1OCc2cn(nn2)CCCC(=O)N([C@@H](C)CO)C[C@H]1C`, the AC50 is > 10 µM (inactive).

As for `COCCNC[C@H]1[C@@H](c2ccccc2)[C@@H](CO)N1c1nc(C)c(C)s1`, the AC50 is > 10 µM (inactive).

On to `CC(=O)N(CC1CCC1)C[C@H]1N[C@H](CO)[C@@H]1c1ccc(C2=CCCC2)cc1`, for which the AC50 was > 10 µM (inactive).

With `C[C@@H]1CN([C@@H](C)CO)C(=O)CCCn2nncc2CO[C@@H]1CN(C)C(=O)NC1CCCC1`, the AC50 was > 10 µM (inactive).

For `COc1cccc(C(=O)N2C[C@@H]3[C@H](c4ccccc42)[C@@H](CO)N3C(=O)c2cccc(F)c2)c1`, the AC50 was > 10 µM (inactive).

Turning to `O=S(=O)(NC[C@H]1[C@@H](c2ccccc2)[C@H](CO)N1CC1CC1)c1ccccc1`, the AC50 is > 10 µM (inactive).

For the molecule `CN(C)CC(=O)N1[C@@H](CO)[C@@H]2c3ccccc3N(C(=O)Cc3ccccc3)C[C@@H]21`, the AC50 is > 10 µM (inactive).

For the molecule `CC(=O)N1[C@H](CO)[C@@H](c2ccccc2)[C@H]1CNC(=O)CN1CCOCC1`, the AC50 is > 10 µM (inactive).

`O=C(c1ccc2c(c1)OCO2)N1C[C@@H]2[C@H](c3ccccc31)[C@@H](CO)N2C(=O)CC1CC1`: the AC50 is > 10 µM (inactive).

As for `C[C@@H]1CN([C@@H](C)CO)C(=O)CCCn2cc(nn2)CO[C@H]1CN(C)C(=O)Oc1ccc2ccccc2c1`, the AC50 is > 10 µM (inactive).

As for `CNC[C@@H]1OCc2cnnn2CCCC(=O)N([C@@H](C)CO)C[C@H]1C`, the AC50 was > 10 µM (inactive).

Regarding `CC(C)NC(=O)N1[C@H](CO)[C@@H](c2ccccc2)[C@@H]1CN(C)C(=O)c1cccnc1`, the AC50 is > 10 µM (inactive).

Consider `C/C=C/c1ccc([C@@H]2[C@H](CO)N[C@H]2CN(CC(C)C)C(=O)c2ccccn2)cc1`, for which the AC50 is > 10 µM (inactive).

For `O=C(CN1CCOCC1)NC[C@@H]1N[C@@H](CO)[C@H]1c1ccc(-c2ccccc2)cc1`, the AC50 is > 10 µM (inactive).

For `CC(=O)N1[C@H](CO)[C@H](c2ccccc2)[C@@H]1CN(C)S(=O)(=O)c1ccccc1`, the AC50 was > 10 µM (inactive).

As for `CC(=O)N1[C@H](CO)[C@@H](c2ccccc2)[C@@H]1CN(CC1CCC1)C(=O)CN(C)C`, the AC50 is > 10 µM (inactive).

Regarding `CC(C)N(C[C@@H]1N[C@@H](CO)[C@@H]1c1ccccc1)S(=O)(=O)c1ccccc1`, the AC50 was > 10 µM (inactive).

With `O=C(NC[C@H]1N[C@H](CO)[C@@H]1c1ccc(-c2cncnc2)cc1)C1CCCCC1`, the AC50 is > 10 µM (inactive).

Regarding `CC(C)N(C[C@H]1N[C@H](CO)[C@H]1c1ccccc1)S(=O)(=O)c1ccccc1`, the AC50 is > 10 µM (inactive).

In the case of `COc1ccccc1C(=O)N1C[C@H]2[C@@H](c3ccccc31)[C@H](CO)N2C(=O)Cc1ccccc1`, the AC50 is > 10 µM (inactive).

Regarding `C[C@@H]1CN([C@H](C)CO)C(=O)CCCn2nncc2CO[C@H]1CN(C)S(=O)(=O)c1ccc(Oc2ccccc2)nc1`, the AC50 was > 10 µM (inactive).

As for `CC(C)N(C[C@H]1[C@H](c2ccccc2)[C@@H](CO)N1S(C)(=O)=O)C(=O)CN(C)C`, the AC50 is > 10 µM (inactive).

For the molecule `O=C(Cc1ccccn1)N1[C@H](CO)[C@@H]2c3ccccc3NC[C@@H]21`, the AC50 was > 10 µM (inactive).

`O=C(CC(F)(F)F)N1C[C@H]2[C@@H](c3ccccc31)[C@@H](CO)N2Cc1cccnc1`: the AC50 was > 10 µM (inactive).

`OC[C@H]1[C@H]2c3ccccc3NC[C@H]2N1Cc1ccccc1Cl`: the AC50 was > 10 µM (inactive).

On to `C[C@@H]1CN([C@H](C)CO)C(=O)CCCn2nncc2CO[C@@H]1CN(C)C(=O)Nc1ccc(-c2cccs2)cc1`, for which the AC50 was > 10 µM (inactive).

`C[C@H]1CN([C@@H](C)CO)C(=O)CCCn2cc(nn2)CO[C@@H]1CN(C)C(=O)CCC(F)(F)F`: the AC50 is > 10 µM (inactive).

`O=C(Nc1ccc(F)cc1)N1[C@H](CO)[C@H]2c3ccccc3NC[C@H]21`: the AC50 was > 10 µM (inactive).

Take `CCCNC[C@H]1[C@@H](c2ccc(-c3cccc(C#N)c3)cc2)[C@@H](CO)N1C(C)=O`: the AC50 is > 10 µM (inactive).
